Laboratory results taken from patent publication US8471005B2 (Cephalon, Inc., priority 2008, dated 2013).
Where two headings read alike, the source gives them in different places.

Tests used:
JAK2 = molecular target: T1, JAK2 (Homo sapiens, UniProt O60674); experiment: Recombinant Human JAK2 Kinase Assay (TRF); assay type: biochemical; details: read-out: JAK2 Potency
T1 construct: host or cells: baculovirus expression system
Procedure, shortened: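 Baculovirus-expressed JAK2 (15 ng/ml) phosphorylated a biotinylated 15-mer peptide captured on Neutravidin, in 20 mM HEPES pH 7.2, 0.2 μM ATP, 1 mM MnCl2, 0.1% BSA, 2.5% DMSO final, 20 min at room temperature. Phosphoproduct detected by time-resolved fluorescence with Eu-N1-labelled PY100 antibody.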

ALK = molecular target: T2, ALK (Homo sapiens, UniProt Q9UM73); experiment: ALK Kinase Assay (ELISA/TRF, PLC-γ substrate); assay type: biochemical; details: read-out: ALK Potency
T2 construct: host or cells: baculovirus expression system
Procedure, shortened: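 First, plates are coated with substrate (phospholipase C-γ, 10 μg/mL, TBS). Next, 30 ng/ml ALK initiates phosphorylation for 15 min at 37° C. Then Eu-N1 PT66 antibody is added for detection, and a nonlinear dose-response fit of percent inhibition yields IC50.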

[1] = JAK2 kinase inhibition, 0.2 μM ATP
[2] = ALK kinase inhibition, 1 μM ATP

T1 sequence (O60674 whole entry): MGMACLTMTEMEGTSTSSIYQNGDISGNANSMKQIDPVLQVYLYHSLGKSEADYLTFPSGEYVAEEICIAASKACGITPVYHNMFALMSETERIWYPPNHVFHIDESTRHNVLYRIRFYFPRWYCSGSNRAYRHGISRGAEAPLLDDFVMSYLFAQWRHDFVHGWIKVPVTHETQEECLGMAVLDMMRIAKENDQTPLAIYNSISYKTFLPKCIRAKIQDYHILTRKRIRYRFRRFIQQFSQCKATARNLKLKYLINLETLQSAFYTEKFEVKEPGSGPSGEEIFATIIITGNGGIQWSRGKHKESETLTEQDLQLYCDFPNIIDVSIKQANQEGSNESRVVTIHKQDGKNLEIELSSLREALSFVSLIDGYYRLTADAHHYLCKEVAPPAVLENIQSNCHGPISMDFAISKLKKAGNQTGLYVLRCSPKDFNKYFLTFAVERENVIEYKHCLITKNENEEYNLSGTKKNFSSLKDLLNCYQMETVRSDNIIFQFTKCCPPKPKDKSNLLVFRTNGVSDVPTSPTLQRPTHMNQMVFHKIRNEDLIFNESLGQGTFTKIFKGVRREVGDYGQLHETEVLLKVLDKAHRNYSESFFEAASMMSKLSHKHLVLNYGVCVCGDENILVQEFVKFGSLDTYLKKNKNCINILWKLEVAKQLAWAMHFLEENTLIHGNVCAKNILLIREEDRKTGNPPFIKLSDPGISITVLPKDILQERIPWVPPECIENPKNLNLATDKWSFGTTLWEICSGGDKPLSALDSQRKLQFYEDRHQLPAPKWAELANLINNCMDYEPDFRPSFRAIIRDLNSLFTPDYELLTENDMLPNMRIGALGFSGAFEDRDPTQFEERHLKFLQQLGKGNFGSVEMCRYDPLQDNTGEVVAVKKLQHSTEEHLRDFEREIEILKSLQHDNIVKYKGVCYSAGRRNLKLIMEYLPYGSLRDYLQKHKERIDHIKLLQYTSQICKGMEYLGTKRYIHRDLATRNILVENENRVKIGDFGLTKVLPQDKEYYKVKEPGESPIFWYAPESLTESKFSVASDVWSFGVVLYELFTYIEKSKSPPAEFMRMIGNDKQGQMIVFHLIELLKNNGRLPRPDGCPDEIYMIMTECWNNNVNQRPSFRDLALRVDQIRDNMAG
T2 sequence (Q9UM73 19-1620): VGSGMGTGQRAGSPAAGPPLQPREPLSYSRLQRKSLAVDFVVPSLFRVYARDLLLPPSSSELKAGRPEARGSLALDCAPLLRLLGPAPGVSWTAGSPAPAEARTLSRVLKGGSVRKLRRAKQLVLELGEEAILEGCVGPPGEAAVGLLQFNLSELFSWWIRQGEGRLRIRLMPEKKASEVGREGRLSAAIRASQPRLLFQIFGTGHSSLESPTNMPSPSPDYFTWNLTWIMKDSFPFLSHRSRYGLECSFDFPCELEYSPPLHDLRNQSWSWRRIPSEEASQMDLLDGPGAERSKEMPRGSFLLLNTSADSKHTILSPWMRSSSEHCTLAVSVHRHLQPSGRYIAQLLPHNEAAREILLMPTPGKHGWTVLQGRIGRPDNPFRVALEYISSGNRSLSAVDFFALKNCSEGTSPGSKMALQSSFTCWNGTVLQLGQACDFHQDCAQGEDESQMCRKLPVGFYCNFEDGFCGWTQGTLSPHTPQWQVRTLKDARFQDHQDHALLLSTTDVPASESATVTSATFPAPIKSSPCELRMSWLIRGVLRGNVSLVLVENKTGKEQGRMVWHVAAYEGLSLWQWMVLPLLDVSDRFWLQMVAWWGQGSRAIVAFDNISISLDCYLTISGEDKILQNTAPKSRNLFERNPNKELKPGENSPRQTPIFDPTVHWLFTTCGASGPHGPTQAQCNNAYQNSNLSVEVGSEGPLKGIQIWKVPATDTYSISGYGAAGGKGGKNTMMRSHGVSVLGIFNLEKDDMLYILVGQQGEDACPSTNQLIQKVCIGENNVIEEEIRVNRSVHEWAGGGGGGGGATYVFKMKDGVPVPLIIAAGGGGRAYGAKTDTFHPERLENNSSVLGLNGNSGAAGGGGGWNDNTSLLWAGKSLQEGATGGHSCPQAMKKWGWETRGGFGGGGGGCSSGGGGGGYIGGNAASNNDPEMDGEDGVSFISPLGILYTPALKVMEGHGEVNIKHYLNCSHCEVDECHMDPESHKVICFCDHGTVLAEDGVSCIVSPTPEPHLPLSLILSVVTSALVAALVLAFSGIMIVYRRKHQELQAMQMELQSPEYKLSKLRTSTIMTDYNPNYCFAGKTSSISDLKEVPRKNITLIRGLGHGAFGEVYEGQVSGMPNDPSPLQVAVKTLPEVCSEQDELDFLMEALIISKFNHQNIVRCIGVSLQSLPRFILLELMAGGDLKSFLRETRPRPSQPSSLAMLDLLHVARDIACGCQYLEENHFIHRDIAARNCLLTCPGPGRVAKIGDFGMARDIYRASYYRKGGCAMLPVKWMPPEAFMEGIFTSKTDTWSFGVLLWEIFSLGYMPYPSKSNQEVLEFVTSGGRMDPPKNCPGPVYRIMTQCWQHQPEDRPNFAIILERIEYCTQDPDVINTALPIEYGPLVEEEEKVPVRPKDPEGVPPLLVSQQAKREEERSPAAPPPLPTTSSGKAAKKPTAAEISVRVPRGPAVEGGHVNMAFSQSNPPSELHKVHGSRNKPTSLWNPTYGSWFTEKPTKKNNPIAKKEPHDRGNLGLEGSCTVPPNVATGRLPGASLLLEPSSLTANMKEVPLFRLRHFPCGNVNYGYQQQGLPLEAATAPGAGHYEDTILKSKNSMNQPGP

IC50 (JAK2; [1]) [nM]	IC50 (ALK; [2]) [nM]	IC50 (JAK2; JAK2 Kinase Inhibition) [nM]	IC50 (ALK; ALK Kinase Inhibition) [nM]	SMILES
< 100	< 100			COCCN1CCc2ccc(Nc3ncc4ccc(-c5cccc(CCC#N)c5)n4n3)cc2CC1 [Example 1152, 3-(3-{2-[3-(2-Methoxy-ethyl)-2,3,4,5-tetrahydro-1H-benzo[d]azepin-7-ylamino]-pyrrolo[2,1-f][1,2,4]triazin-7-yl}-phenyl)-propionitrile]
< 100	1000 to 10000			CC(=O)Nc1cccc(Nc2ncc3ccc(-c4cccn4CCC#N)n3n2)c1 [Example 1294, N-(3-{7-[1-(2-Cyano-ethyl)-1H-pyrrol-2-yl]-pyrrolo[2,1-f][1,2,4]triazin-2-ylamino}-phenyl)-acetamide]
		< 100	100 to 1000	COc1ccc(-c2cc(Cl)c3cnc(Nc4ccc(C5CCN(CC(N)=O)CC5)cc4)nn23)cn1 [Example 1555, 2-(4-{4-[5-Chloro-7-(6-methoxy-pyridin-3-yl)-pyrrolo[2,1-f][1,2,4]triazin-2-ylamino]-phenyl}-piperidin-1-yl)-acetamide]
		< 100	1000 to 10000	COc1cccnc1-c1ccc2cnc(Nc3ccc(C4CCN(CC(N)=O)CC4)cc3)nn12 [Example 1531, 2-(4-{4-[7-(3-Methoxy-pyridin-2-yl)-pyrrolo[2,1-f][1,2,4]triazin-2-ylamino]-phenyl}-piperidin-1-yl)-acetamide]
< 100	1000 to 10000			Cc1nc(-c2ccc3cnc(Nc4ccc(N5CCOCC5)cc4)nn23)cn1C [Example 1044, [7-(1,2-Dimethyl-1H-imidazol-4-yl)-pyrrolo[2,1-f][1,2,4]triazin-2-yl]-(4-morpholin-4-yl-phenyl)-amine]
		< 100	< 100	CCOc1ccccc1-c1ccc2cnc(Nc3ccc(N4CCN(C)CC4)cc3)nn12 [Example 109, [7-(2-Ethoxy-phenyl)-pyrrolo[2,1-f][1,2,4]triazin-2-yl]-[4-(4-methyl-piperazin-1-yl)-phenyl]-amine]
		100 to 1000	100 to 1000	COc1cc(N2CCC(N3CCOCC3)CC2)ccc1Nc1ncc2ccc(-c3ccccc3NS(C)(=O)=O)n2n1 [Example 1450, N-(2-{2-[2-Methoxy-4-(4-morpholin-4-yl-piperidin-1-yl)-phenylamino]-pyrrolo[2,1-f][1,2,4]triazin-7-yl}-phenyl)-methanesulfonamide]
100 to 1000	< 100			COc1cc(C2CCN(CC(N)=O)CC2)ccc1Nc1ncc2ccc(-c3ccccc3N(C)S(C)(=O)=O)n2n1 [Example 812, 2-[4-(4-{7-[2-(Methanesulfonyl-methyl-amino)-phenyl]-pyrrolo[2,1-f][1,2,4]triazin-2-ylamino}-3-methoxy-phenyl)-piperidin-1-yl]-acetamide]
		< 100	1000 to 10000	COc1ccccc1NCc1ccc2cnc(Nc3ccc(N4CCN(C)CC4)cc3)nn12 [Example 365, {7-[(2-Methoxy-phenylamino)-methyl]-pyrrolo[2,1-f][1,2,4]triazin-2-yl}-[4-(4-methyl-piperazin-1-yl)-phenyl]-amine]
< 100	100 to 1000			CN1CCN(c2ccc(Nc3ncc4ccc(-c5ccccc5N(C)S(C)(=O)=O)n4n3)nc2)CC1 [Example 1197, N-Methyl-N-(2-{2-[5-(4-methyl-piperazin-1-yl)-pyridin-2-ylamino]-pyrrolo[2,1-f][1,2,4]triazin-7-yl}-phenyl)-methanesulfonamide]
100 to 1000	< 100			COc1cc(C2CCN(CC(N)=O)CC2)ccc1Nc1ncc2ccc(-c3cccc(S(=O)(=O)NC(C)(C)C)c3)n2n1 [Example 693, 2-(4-{4-[7-(3-tert-Butylsulfamoylphenyl)pyrrolo[2,1-f][1,2,4]triazin-2-ylamino]-3-methoxyphenyl)piperidin-1-yl)-acetamide]
		< 100	1000 to 10000	CC(=O)Nc1cccc(Nc2ncc3ccc(-c4ccccc4NS(C)(=O)=O)n3n2)c1 [Example 1382, N-{3-[7-(2-Methanesulfonylamino-phenyl)-pyrrolo[2,1-f][1,2,4]triazin-2-ylamino]-phenyl}-acetamide]
		< 100	100 to 1000	CN(C)CCNC(=O)c1ccc(-c2ccc3cnc(Nc4ccc(N5CCOCC5)cc4)nn23)cc1 [Example 52, N-(2-Dimethylamino-ethyl)-4-[2-(4-morpholin-4-yl-phenylamino)-pyrrolo[2,1-f][1,2,4]triazin-7-yl]-benzamide]
		< 100	100 to 1000	CC(C)(C)NS(=O)(=O)c1cccc(-c2ccc3cnc(Nc4ccc(C5CNCCN5)cc4)nn23)c1 (stereo not shown) [Example 1528, N-tert-Butyl-3-[2-(4-piperazin-2-yl-phenylamino)-pyrrolo[2,1-f][1,2,4]triazin-7-yl]-benzenesulfonamide]
		< 100	100 to 1000	CN1CCN(c2cccc(Nc3ncc4ccc(-c5cccc(N6CCOCC6)c5)n4n3)c2)CC1 [Example 1392, [3-(4-Methyl-piperazin-1-yl)-phenyl]-[7-(3-morpholin-4-yl-phenyl)-pyrrolo[2,1-f][1,2,4]triazin-2-yl]-amine]
< 100	1000 to 10000			CC(=O)N1CCCC(C)(C)c2ccc(Nc3ncc4ccc(-c5cccc(NS(C)(=O)=O)c5)n4n3)cc21 [Example 1365, N-{3-[2-(1-Acetyl-5,5-dimethyl-2,3,4,5-tetrahydro-1H-benzo[b]azepin-8-ylamino)-pyrrolo[2,1-f][1,2,4]triazin-7-yl]-phenyl}-methanesulfonamide]
		< 100	100 to 1000	CN1CCN(C(=O)c2ccc(Nc3ncc4ccc(-c5cccc(S(=O)(=O)NC(C)(C)C)c5)n4n3)cc2)CC1 [Example 1410, N-tert-Butyl-3-{2-[4-(4-methyl-piperazine-1-carbonyl)-phenylamino]-pyrrolo[2,1-f][1,2,4]triazin-7-yl}-benzenesulfonamide]
		< 100	100 to 1000	O=C(c1cccc(-c2ccc3cnc(Nc4ccc(N5CCOCC5)cc4)nn23)c1)N1CCCC1 [Example 15, {3-[2-(4-Morpholin-4-yl-phenylamino)-pyrrolo[2,1-f][1,2,4]triazin-7-yl]-phenyl}-pyrrolidin-1-yl-methanone]
		< 100	< 100	CN1CCN(c2ccc(Nc3ncc4ccc(-c5ccccc5)n4n3)cc2)CC1 [Example 7, [4-(4-Methyl-piperazin-1-yl)-phenyl]-(7-phenyl-pyrrolo[2,1-f][1,2,4]triazin-2-yl)-amine]
< 100	1000 to 10000			COc1ccc(-c2ccc3cnc(Nc4ccc5ncn(C)c5c4)nn23)cn1 [Example 1307, [7-(6-Methoxy-pyridin-3-yl)-pyrrolo[2,1-f][1,2,4]triazin-2-yl]-(3-methyl-3H-benzimidazol-5-yl)-amine]
		< 100	1000 to 10000	CC(=O)Nc1cc(Nc2ncc3ccc(-c4cccc(Cl)c4)n3n2)ccc1C(C)C [Example 303, N-{5-[7-(3-Chloro-phenyl)-pyrrolo[2,1-f][1,2,4]triazin-2-ylamino]-2-isopropyl-phenyl}-acetamide]
		< 100	1000 to 10000	COc1ccc(-c2ccc3cnc(Nc4ccc(C(F)(F)C(=O)N5CCN(C)CC5)cc4)nn23)cn1 [Example 1516, 2,2-Difluoro-2-{4-[7-(6-methoxy-pyridin-3-yl)-pyrrolo[2,1-f][1,2,4]triazin-2-ylamino]-phenyl}-1-(4-methyl-piperazin-1-yl)-ethanone]
		> 10000	> 10000	COc1ccccc1-c1ccc2cnc(C#N)nn12 [Example 1494, 7-(2-Methoxy-phenyl)-pyrrolo[2,1-f][1,2,4]triazine-2-carbonitrile]
100 to 1000	< 100			COc1cc(C2CCN(CC(N)=O)CC2)ccc1Nc1ncc2c(C)cc(-c3ccccc3OC)n2n1 [Example 1262, 2-(4-{3-Methoxy-4-[7-(2-methoxy-phenyl)-5-methyl-pyrrolo[2,1-f][1,2,4]triazin-2-ylamino]-phenyl}-piperidin-1-yl)-acetamide]
< 100	100 to 1000			CC(C)(C)NS(=O)(=O)c1cccc(-c2ccc3cnc(Nc4ccc5c(c4)C(N)C(O)C5)nn23)c1 (stereo not shown) [Example 680, 3-[2-(3-Amino-2-hydroxy-indan-5-ylamino)-pyrrolo[2,1-f][1,2,4]triazin-7-yl]-N-tert-butyl-benzenesulfonamide]
< 100	> 10000			c1cncc(-c2ccc3cnc(Nc4cnn(CCN5CCOCC5)c4)nn23)c1 [Example 1191, [1-(2-Morpholin-4-yl-ethyl)-1H-pyrazol-4-yl]-(7-pyridin-3-yl-pyrrolo[2,1-f][1,2,4]triazin-2-yl)-amine]
100 to 1000	< 100			COc1cc(C2CCN(CC(=O)N(C)C)CC2)ccc1Nc1ncc2ccc(-c3ccccc3OC)n2n1 [Example 811, 2-(4-{3-Methoxy-4-[7-(2-methoxy-phenyl)-pyrrolo[2,1-f][1,2,4]triazin-2-ylamino]-phenyl}-piperidin-1-yl)-N,N-dimethyl-acetamide]
		< 100	100 to 1000	C[C@@H](O)CN1CCN(c2ccc(Nc3ncc4ccc(-c5cccc(S(=O)(=O)NC(C)(C)C)c5)n4n3)cc2)CC1 [Example 426, N-tert-Butyl-3-(2-{4-[4-((R)-2-hydroxy-propyl)-piperazin-1-yl]-phenylamino}-pyrrolo[2,1-f][1,2,4]triazin-7-yl)-benzenesulfonamide]
		< 100	1000 to 10000	CS(=O)(=O)Nc1ccccc1-c1ccc2cnc(Nc3ccc(N4CCOCC4)cc3)nn12 [Example 428, N-{2-[2-(4-Morpholin-4-yl-phenylamino)-pyrrolo[2,1-f][1,2,4]triazin-7-yl]-phenyl}-methanesulfonamide]
